Read-outs that look alike come from different tables or passages of the source.
Molecular target: T1, Zcchc11 enzyme (Homo sapiens, UniProt Q5TAX3)
T1 construct: made in house; host or cells: HEK293 cells (Zcchc11); E. coli Rosetta II (LIN28A)
T1 sequence (Q5TAX3 212-1420): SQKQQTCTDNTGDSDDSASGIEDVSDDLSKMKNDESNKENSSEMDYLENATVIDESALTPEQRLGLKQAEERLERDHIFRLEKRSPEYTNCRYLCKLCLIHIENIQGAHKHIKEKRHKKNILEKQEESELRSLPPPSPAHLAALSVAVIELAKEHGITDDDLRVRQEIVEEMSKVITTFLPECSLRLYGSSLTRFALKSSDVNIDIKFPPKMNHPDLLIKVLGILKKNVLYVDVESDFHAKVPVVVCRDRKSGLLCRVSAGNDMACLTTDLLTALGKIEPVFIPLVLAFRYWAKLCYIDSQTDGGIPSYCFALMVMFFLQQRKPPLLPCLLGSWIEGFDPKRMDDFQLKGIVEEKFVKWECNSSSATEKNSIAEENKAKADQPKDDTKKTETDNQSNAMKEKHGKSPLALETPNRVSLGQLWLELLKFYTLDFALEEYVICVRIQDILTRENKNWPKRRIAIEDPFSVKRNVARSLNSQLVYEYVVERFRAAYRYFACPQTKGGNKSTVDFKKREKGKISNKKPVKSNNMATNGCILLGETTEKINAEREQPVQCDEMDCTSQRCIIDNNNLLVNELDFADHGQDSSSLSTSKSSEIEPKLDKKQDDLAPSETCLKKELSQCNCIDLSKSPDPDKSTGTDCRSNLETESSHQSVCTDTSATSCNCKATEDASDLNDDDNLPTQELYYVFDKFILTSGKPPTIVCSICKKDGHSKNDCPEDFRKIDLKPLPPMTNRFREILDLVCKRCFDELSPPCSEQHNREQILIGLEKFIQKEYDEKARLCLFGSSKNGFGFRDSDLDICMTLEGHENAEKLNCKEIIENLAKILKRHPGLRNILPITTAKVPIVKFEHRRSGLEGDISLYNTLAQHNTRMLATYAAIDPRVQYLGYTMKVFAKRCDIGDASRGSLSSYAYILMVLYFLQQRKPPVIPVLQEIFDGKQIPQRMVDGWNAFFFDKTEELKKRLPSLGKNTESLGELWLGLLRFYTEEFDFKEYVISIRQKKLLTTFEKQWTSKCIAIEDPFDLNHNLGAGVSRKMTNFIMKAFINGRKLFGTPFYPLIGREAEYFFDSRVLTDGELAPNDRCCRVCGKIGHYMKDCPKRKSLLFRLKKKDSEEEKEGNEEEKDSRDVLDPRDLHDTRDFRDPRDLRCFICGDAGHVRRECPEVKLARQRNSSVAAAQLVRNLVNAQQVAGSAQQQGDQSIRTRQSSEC
Assay: TUTase assay (Zcchc11 assay, Lin28a-dependent polyuridylation of pre-let-7)
Type: biochemical
Settings: read-out: Potency Lin28a-dep Z11 IC50
Summary of the method: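 Polyuridylation measured as fluorescein loss when a rhodamine-labelled A20 probe anneals to U-tails added to fluorescein pre-let-7 (2 nM). Reaction: truncated Zcchc11 0.2 nM, E. coli-made LIN28A 10 nM, UTP 5 uM, HEPES pH 7.3, room temperature. Initial rates fitted to four-parameter IC50.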

[1] = LIN28A 10 nM, Zcchc11 0.2 nM, 5′-fluorescein pre-let-7 miRNA 2 nM, UTP 5 uM, room temperature, 30 minutes pre-incubation
[2] = Lin28a-dependent Zcchc11 (Z11) TUTase activity
[3] = Lin28a-dependent Zcchc11 (Z11) TUTase assay

| IC50 [2] [µM] | IC50 [3] [µM] | SMILES | other results |
| --- | --- | --- | --- |
|  |  | O=C(O)c1cn(-c2cc3n(n2)CCOC3)c2cc(N3CCC[C@@H]3COc3ncccc3Cl)c(Cl)cc2c1=O [Example 76, (R)-6-chloro-7-(2-(((3-chloropyridin-2-yl)oxy)methyl)pyrrolidin-1-yl)-1-(6,7-dihydro-4H-pyrazolo[5,1-c][1,4]oxazin-2-yl)-4-oxo-1,4-dihydroquinoline-3-carboxylic acid] | IC50 [1]: ≤ 1 µM |
| ≤ 1 |  | COCCN(C)C1CN(c2ccc(-n3cc(C(=O)O)c(=O)c4cc(F)c(N5CCC[C@@H]5COc5nc(OC)ccc5Cl)cc43)cn2)C1 [Compound 302, (R)-7-(2-(((3-chloro-6-methoxy-pyridin-2-yl)oxy)methyl)pyrrolidin-1-yl)-6-fluoro-1-(6-(3-((2-methoxyethyl) (methyl)amino)azetidin-1-yl)pyridin-3-yl)-4-oxo-1,4-dihydro-quinoline-3-carboxylic acid] |  |
| ≤ 1 |  | Cc1cc2c(=O)c(C(=O)O)cn(-c3ccnc(N)c3)c2cc1N1CCC[C@@H]1COc1ncccc1Cl [Compound 297, (R)-1-(2-aminopyridin-4-yl)-7-(2-(((3-chloropyridin-2-yl)oxy)methyl)pyrrolidin-1-yl)-6-methyl-4-oxo-1,4-dihydro-quinoline-3-carboxylic acid] |  |
|  | ≤ 1 | O=C(O)c1cn(-c2ccc3[nH]ccc3c2)c2cc(N3CCC[C@@H]3COc3ccccn3)c(F)cc2c1=O [Example 439, (R)-6-fluoro-1-(1H-indol-5-yl)-4-oxo-7-(2-((pyridin-2-yloxy)methyl)pyrrolidin-1-yl)-1,4-dihydroquinoline-3-carboxylic acid] |  |
|  | ≤ 1 | CN(C)CCNc1ccc(-n2cc(C(=O)O)c(=O)c3cc(Cl)c(N4CCC[C@@H]4COc4ncccc4Cl)cc32)cn1 [Example 416, (R)-6-chloro-7-(2-(((3-chloropyridin-2-yl)oxy)methyl)pyrrolidin-1-yl)-1-(6-((2-(dimethylamino)ethyl)amino)pyridin-3-yl)-4-oxo-1,4-dihydroquinoline-3-carboxylic acid] |  |
|  | 1 to 10 | Cc1cc(C)cc(-n2cc(C(=O)O)c(=O)c3cc(F)c(N4CCC[C@@H]4COc4ccccn4)cc32)c1 [Example 389, (R)-1-(3,5-dimethylphenyl)-6-fluoro-4-oxo-7-(2-((pyridin-2-yloxy)methyl)pyrrolidin-1-yl)-1,4-dihydroquinoline-3-carboxylic acid] |  |
|  | ≤ 1 | COc1ccnc(OC[C@H]2C[C@H]3C[C@H]3N2c2cc3c(cc2F)c(=O)c(C(=O)O)cn3-c2ccc(N3CC(N(C)C)C3)nc2)c1F [Example 686, 1-(6-(3-(dimethylamino)azetidin-1-yl)pyridin-3-yl)-6-fluoro-7-((1R,3R, 5R)-3-(((3-fluoro-4-methoxypyridin-2-yl)oxy)methyl)-2-azabicyclo[3.1.0]hexan-2-yl)-4-oxo-1,4-dihydroquinoline-3-carboxylic acid] |  |
|  | ≤ 1 | O=C(O)c1cn(-c2ncco2)c2cc(N3CCC[C@@H]3COc3ncccc3Cl)c(Cl)cc2c1=O [Example 485, (R)-6-chloro-7-(2-(((3-chloropyridin-2-yl)oxy)methyl)pyrrolidin-1-yl)-1-(oxazol-2-yl)-4-oxo-1,4-dihydroquinoline-3-carboxylic acid] |  |
|  |  | Cc1cccnc1OC[C@H]1CCCN1c1cc2c(cc1F)c(=O)c(C(=O)O)cn2-c1cnccn1 [Example 15, (R)-6-fluoro-7-(2-(((3-methylpyridin-2-yl)oxy)methyl)pyrrolidin-1-yl)-4-oxo-1-(pyrazin-2-yl)-1,4-dihydroquinoline-3-carboxylic acid] | IC50 [1]: ≤ 1 µM |
| ≤ 1 |  | COc1ccc(Cl)c(OC[C@H]2CCCN2c2cc3c(cc2Cl)c(=O)c(C(=O)O)cn3-c2ccc(N)nc2)n1 [Compound 294, (R)-1-(6-aminopyridin-3-yl)-6-chloro-7-(2-(((3-chloro-6-methoxy-pyridin-2-yl)oxy)methyl)pyrrolidin-1-yl)-4-oxo-1,4-dihydro-quinoline-3-carboxylic acid] |  |
|  |  | Cc1cccnc1OC[C@H]1CCCN1c1cc2c(cc1F)c(=O)c(C(=O)O)cn2-c1ccc(OCCN(C)C)cc1 [Example 17, (R)-1-(4-(2-(dimethylamino)ethoxy)phenyl)-6-fluoro-7-(2-(((3-methylpyridin-2-yl)oxy)methyl)pyrrolidin-1-yl)-4-oxo-1,4-dihydroquinoline-3-carboxylic acid] | IC50 [1]: ≤ 1 µM |
| ≤ 1 |  | COc1ccc(Cl)c(OC[C@H]2C[C@H]3C[C@H]3N2c2cc3c(cc2Cl)c(=O)c(C(=O)O)cn3-c2ccnc(N)c2)n1 [Compound 198, 1-(2-aminopyridin-4-yl)-6-chloro-7-((1R,3R,5R)-3-(((3-chloro-6-methoxy-pyridin-2-yl)oxy)methyl)-2-azabicyclo [3.1.0]hexan-2-yl)-4-oxo-1,4-dihydro-quinoline-3-carboxylic acid] |  |
| ≤ 1 |  | O=C(O)c1cn(-c2cnn(C3CNC3)c2)c2cc(N3CCC[C@@H]3COc3ncccc3Cl)c(Cl)cc2c1=O [Compound 243, 1-[1-(azetidin-3-yl)pyrazol-4-yl]-6-chloro-7-[(2R)-2-[[(3-chloropyridin-2-yl)oxy]methyl]pyrrolidin-1-yl]-4-oxoquinoline-3-carboxylic acid] |  |
| ≤ 1 |  | CN(C)C1CN(c2ccc(-n3cc(C(=O)O)c(=O)c4cc(Cl)c(N5CC(C)(C)C[C@@H]5COc5ncccc5Cl)cc43)cn2)C1 [Compound 254, 6-chloro-7-[(2R)-2-[[(3-chloropyridin-2-yl)oxy]methyl]-4,4-dimethyl-pyrrolidin-1-yl]-1-[6-[3-(dimethyl-amino)azetidin-1-yl]pyridin-3-yl]-4-oxoquinoline-3-carboxylic acid] |  |
| > 50 |  | O=C(O)c1cn(-c2cnccn2)c2cc(N3C(=O)CC[C@@H]3COc3ccccn3)c(Cl)cc2c1=O [Compound 286, (R)-6-chloro-4-oxo-7-(2-oxo-5-((pyridin-2-yloxy)methyl)pyrrolidin-1-yl)-1-(pyrazin-2-yl)-1,4-dihydro-quinoline-3-carboxylic acid] |  |
|  | ≤ 1 | CN(C)C1CN(c2ccc(-n3cc(C(=O)O)c(=O)c4cc(Cl)c(N5C6CC6C[C@@H]5COc5ncccc5Cl)cc43)cn2)C1 (stereo partly drawn) [Example 628, 6-chloro-7-((3R)-3-(((3-chloropyridin-2-yl)oxy)methyl)-2-azabicyclo[3.1.0]hexan-2-yl)-1-(6-(3-(dimethylamino)azetidin-1-yl)pyridin-3-yl)-4-oxo-1,4-dihydroquinoline-3-carboxylic acid] |  |
| ≤ 1 |  | CN(C)C1CN(c2ccc(-n3cc(C(=O)O)c(=O)c4cc(F)c(N5CC(c6cccnc6)C[C@@H]5COc5ncccc5Cl)cc43)cn2)C1 (single isomer, unassigned) [Compound 328] |  |
| ≤ 1 |  | CO/N=C1/CCN(c2cc3c(cc2Cl)c(=O)c(C(=O)O)cn3-c2ccc(N3CC(N(C)C)C3)nc2)C1COc1nc(OC)ccc1Cl (centres unmarked) [Compound 232, (Z)-6-chloro-7-(2-(((3-chloro-6-methoxy-pyridin-2-yl)oxy)methyl)-3-(methoxyimino)pyrrolidin-1-yl)-1-(6-(3-(dimethyl-amino)azetidin-1-yl)pyridin-3-yl)-4-oxo-1,4-dihydro-quinoline-3-carboxylic acid] |  |
|  | ≤ 1 | C#Cc1cc2c(=O)c(C(=O)O)cn(-c3ccc(N4CC(N(C)C)C4)nc3)c2cc1N1CCC[C@@H]1COc1ncccc1Cl [Example 592, (R)-7-(2-(((3-chloropyridin-2-yl)oxy)methyl)pyrrolidin-1-yl)-1-(6-(3-(dimethylamino)azetidin-1-yl)pyridin-3-yl)-6-ethynyl-4-oxo-1,4-dihydroquinoline-3-carboxylic acid] |  |
|  |  | Nc1ccc(-n2cc(C(=O)O)c(=O)c3cc(Cl)c(N4CCC[C@@H]4COc4ncccc4Cl)cc32)cn1 [Example 40, (R)-1-(6-aminopyridin-3-yl)-6-chloro-7-(2-(((3-chloropyridin-2-yl)oxy)methyl)pyrrolidin-1-yl)-4-oxo-1,4-dihydroquinoline-3-carboxylic acid] | IC50 [1]: ≤ 1 µM |
